Measured values published in paper PMC12250628, “Pharmacokinetics of Cannabidiol in Rat Brain Tissue After Single-Dose Administration of Different Formulations” (Molecules, 2025).

Assays:
[1] = Locomotor behavior and cognitive performance of the studied animals after CBD administration; type: in vivo, rat; conditions: rats, single oral dose of 10 mg/kg CBD
[2] = parameters: method as in PMID 34330718, PMID 28861484; conditions: phase I CBD metabolites; cited from earlier work

Row | SMILES | impact on locomotor behavior and cognitive performance [1] | pharmacological activity [2]
1 | C=C(C)[C@@H]1CCC(C)=C[C@H]1c1c(O)cc(CCCCC)cc1O [CBD, cannabidiol] | no negative impacts on locomotor behavior and cognitive performance | 
2 | C=C(C)[C@@H]1CCC(C(=O)O)=C[C@H]1c1c(O)cc(CCCCC)cc1O [Carrier 7-COOH-CBD, 7-carboxy-cannabidiol] |  | does not exhibit such activity anymore
3 | C=C(C)[C@@H]1CCC(CO)=C[C@H]1c1c(O)cc(CCCCC)cc1O [Carrier 7-OH-CBD, 7-hydroxy-cannabidiol] |  | pharmacologically active
